Tested on: INS-1E cytokine-induced apoptosis, ATP luminescence, 48 h
Experiment: protection from cytokine-induced beta-cell death, late-stage follow-up, mechanism study for beta-cell protection project, INS-1E, ATP luminescence, dry powder (AID 652171)

SMILES	inhibition of cytokine-induced cell death (at 20 µM (top of the series))	inhibition of cytokine-induced cell death (at 10 µM (top of the series))
C[C@@H]1CN([C@@H](C)COC(=O)NCCOCCOCCN)C(=O)c2cccc(NC(=O)Nc3cccc4ccccc34)c2O[C@H]1CN(C)S(=O)(=O)c1ccc2c(c1)OCCO2	102%	–
C[C@@H]1CN([C@@H](C)CO)C(=O)c2cccc(NC(=O)Nc3cccc4ccccc34)c2O[C@H]1CN(C)S(=O)(=O)c1ccc2c(c1)OCCO2	–	90%
